Measurements as given in patent publication US8211646B1, “Methods of treating ovarian cancer by modulating SnoN” (University of South Florida, priority 2008, dated 2012).

How the values were obtained:
Assay type in all cases: cell-based
[1] = tested on: HSP27; experiment: Western analysis of HSP27; settings: HEY, 18 hours As2O3
Method: Proteins were resolved on an 8%, 12%, or 15% SDS-PAGE gel (as appropriate) and electrophoretically transferred to polyvinyldifluoride (PVDF) membranes. After blocking with 5% (w/v) milk in TBST (Tris-Buffered Saline containing 0.1% Tween-20) for one hour at room temperature, membranes were incubated with primary antibodies (at appropriate dilution) overnight at 4° C., followed by extensive washing and incubation for 1 hour with the appropriate horseradish peroxidase-conjugated secondary antibodies (BioRad, Hercules, Calif.). Blots were washed extensively. A rabbit polyclonal EVI1 antibody was obtained (1:3000 dilution, St. Jude's Children's Hospital, Memphis, Tenn.). SnoN rabbit polyclonal (1:1000 dilution), PML, and p21 SMURF2 rabbit polyclonal (1:500 dilution), MRP1 mouse monoclonal (1:500 dilution) and GAPDH mouse monoclonal (1:250 dilution) antibodies were obtained from Santa Cruz Biotechnology (Santa Cruz, Calif.). TGFβRII rabbit polyclonal (1:1000 dilution) antibody was obtained from Strategic Diagnostics (Newark, Del.). Smad2/3 rabbit polyclonal (1:1000 dilution), Beclin-1 rabbit polyclonal (1:1000 dilution), AKT rabbit polyclonal (1:1000 dilution), TAK1 rabbit polyclonal (1:1000 dilution), PARP rabbit polyclonal (1:1000 dilution), Beclin-1 rabbit polyclonal (1:1000 dilution), caspase-3 rabbit polyclonal (1:1000) which detects the pro-caspase form, and ATG5 rabbit polyclonal (1:1000 dilution), LC3-II rabbit polyclonal (1:1000 dilution) antibodies were obtained from Cell Signaling Technology (Danvers, Mass.). […]
The clinical inhibitors As2O3, geldanamycin (17-AAG) (dissolved in dimethylsulfoxide [DMSO]), and MG132 (dissolved in DMSO) were obtained from Sigma-Aldrich (St. Louis, Mo.), Fisher Scientific (Pittsburgh, Pa.), and Alexis Biochemicals (Farmingdale, N.Y.), respectively. […] After the appropriate incubation time (6 or 18 hours), cell lysates were collected, protein quantified, and SDS-PAGE/western analysis was performed. In addition, for selected studies, RNA was isolated, quantified, and used for qPCR analysis.

[2] = tested on: EVI1 and TGFβRII RNA; experiment: qPCR of EVI1 and TGFβRII RNA levels; settings: 5 μM As2O3, 18 hours
Method: RNA was isolated using the RNeasy Mini Kit (Qiagen, Valencia, Calif.) from normal, benign, stage I-IV ovarian patient samples and quantitative PCR was performed. A one-step RT-PCR Taqman master mix from Applied Biosystems (Foster City, Calif.) and primers for genes in the 3q26.2 amplicon were obtained using Genebank sequences as well as from Assays on Demand (Hs00180524_m1 (SnoN/SkiL)), with the following primers and probe sets.
EVI1 Exon III—(detects both EVI1 and MDS1/EVI1):
Primers/probe sequences for SnoN (Hs00180524_m1), TGFβRII (Hs00234253_m1), and LC3 (Hs00261291_m1) were obtained from Applied Biosystems (Assays by Design).
mRNA levels were determined using the One-Step-Plus Applied Biosystems Detection System or ABI PRISM 7700 Sequence Detection System using β-actin as a reference. […] 95° C. for 15 s followed by 60° C. for 1 min Using the correlative method, RNA-fold change in expression was calculated as Ct of gene—Ct of β-actin to generate ΔCt from which ΔCt of the normal sample was subtracted. […]
The clinical inhibitors As2O3, geldanamycin (17-AAG) (dissolved in dimethylsulfoxide [DMSO]), and MG132 (dissolved in DMSO) were obtained from Sigma-Aldrich (St. Louis, Mo.), Fisher Scientific (Pittsburgh, Pa.), and Alexis Biochemicals (Farmingdale, N.Y.), respectively. […] In addition, for selected studies, RNA was isolated, quantified, and used for qPCR analysis.

[3] = tested on: ovarian cancer cells; experiment: Cell titer glo cell viability assay
Method: Measurement of Intracellular ATP Levels. T80, HEY, and SKOV3 ovarian cells were seeded in triplicate for each treatment group at 5000 cells per well into each well of a 96 well white-opaque plate. Following overnight cell attachment, cells were treated for 18 hours with appropriate doses of arsenic trioxide or geldanamycin (0 mM, 2 μM, 5 μM, 10 μM, 25 μM, and 50 μM). Following termination of the cell treatments, the media was removed from the wells and replaced with 100 μl of phosphate-buffered saline (PBS). The plate was equilibrated to room temperature, 100 μl of Cell-Titer Glo reagent (Promega, Madison, Wis.) was added, and mixed on a plate shaker for 2 minutes. The plate was further incubated for 10 minutes at room temperature prior to reading with a Biotek luminescence plate reader to obtain relative light unit (RLU) measurements. Empty wells (containing no cells) were utilized as a correction for background luminescence. All experiments were performed in triplicate.

## Arsenic trioxide [As2O3]
[1]
  HSP27 expression: increased
[2]
  decrease in EVI1 and TGFβRII RNA levels: < 20%
[3]; 25 μM, 18 hour treatment, relative to control cells
  reduction of cell growth (cellular viability): 50%
[3]; SKOV3 (high EVI1) compared to T80 (low EVI1), 2-50 μM, 18 hours
  sensitivity of cellular viability to As2O3: more resistant
